Experimental findings from patent publication US20250090437A1, “COSMETIC COMPOUNDING AGENT, COSMETIC AND PRODUCTION METHOD THEREOF” (MIYOSHI OIL & FAT CO., LTD., priority 2019, published 2025) are described below.

Bounds are passed on as bounds.

The test system of series [1] is keratin. As to the kind of experiment: Stabilization effect of hair treatment agent on keratin (IR, 130° C., seven days). The following applies: treated keratin after 130° C. for seven days. The method, then:
Here, 0.3 g of the keratin that had been treated in 4-1 was placed into a thermostatic device of 130° C. and left to stand still therein for seven days. After seven days, an IR spectrum of the keratin obtained was measured; by measuring an absorption derived from the α-helix secondary structure of amide, a stabilization effect of the hair treatment agent on the structure of keratin was evaluated.
Next, IR measurement was carried out after performing the heating test at 130° C. to obtain peaks derived from each amide and an intensity ratio(s) thereof to a reference peak (reference peak (derived from C—N) 1086 cm^−1, peak 1654 cm^−1 derived from the α-helix secondary structure of amide). The intensity ratio (X) was evaluated as “intensity of reference peak:intensity of peak derived from amide=1:X,” by reading the absorption intensity of the reference peak and the intensity of the peak derived from amide.

The nature of series [2]: Surface resistance measurement of organic ammonium salt. The following applies: 0.7 g applied to polyurethane artificial leather; liquid state; uncoated greater than 4×10^11Ω.
Series [3] is described as follows: Sensory evaluation on healthy hair after using conditioner containing organic ammonium salt. The following applies: conditioner containing 3.0% by mass of the compound. Details: species or system human. The method, then:
Here, 4.5% by mass of a stearyl alcohol (KALCOL 8688 by Kao Corporation), 2.0% by mass of a behenyl alcohol (KALCOL 220-80 by Kao Corporation) and 0.5% by mass of a phenoxyethanol (Hisolve EPH by TOHO Chemical Industry Co., Ltd.) were mixed together and heated to 75° C. to obtain a liquid A. Further, 3.0% by mass of a behentrimonium chloride (CATINAL DC-80 by TOHO Chemical Industry Co., Ltd.), 5.0% by mass of dipropylene glycol and 3.0% by mass of each of the compounds B11, B23, B26, B27 and B28 (content in terms of anhydride in the cases of the compounds B11 and B23) were added together, followed by adding a purified water thereto, and then melting them at 80° C., thus obtaining a liquid B. The liquid B was then gradually added to the liquid A, and stirring was performed at 75° C. for 20 min. Next, the mixture was cooled to a temperature of 40° C. or lower, and a purified water of an evaporated amount was then added thereto so that the whole hair treatment composition would be 100% by mass, followed by uniformly mixing them so as to obtain a hair treatment composition(s).
About 5 g of the healthy hair was dipped into and kept immersed in 150 g of a seven-time dilute aqueous solution of each of the abovementioned hair treatment compositions (conditioners) at 40° C. for 30 min. […] After air drying, a combing capability, cohesiveness and non-stickiness of the hair were evaluated.

Series [4] can be described thus: Water confinement property test (barrier property). The class given is physicochemical. The following applies: 80 wt % aqueous solution, 0.01 mL/cm^2 on filter paper, 40° C. and 25% RH, 24 hours.
Series [5] in a line: Solubility of active ingredient (glutamic acid) in aqueous solution of the compound. The following applies: in 1.8 g compound + 8.2 g ion-exchange water.
The nature of series [6]: Water retention property test 1. The note with it: 80 wt % aqueous solution. The class given is physicochemical. On the procedure: A moisture rate after 24 hours was again measured (post-test moisture rate: B), followed by using the formula below to calculate a rate of reduction in moisture so as to evaluate the water retention property. • Pre-test moisture rate: A (%) • Post-test moisture rate: B (%)

The nature of series [7]: Sensory evaluation on damaged hair after using organic ammonium salt. Details: species or system human. The note with it: damaged hair, 80 wt % aqueous solution.
The nature of series [8]: Permeability to skin (horny layer tape stripping method). The class given is in vivo. The following applies: extraction liquid, an hour after application to the arm, HPLC. On the procedure: Skin permeability was evaluated by a horny layer tape stripping method. […] A sample was applied to the arm and then left thereon for an hour before performing tape stripping on the horn by eight layers. An adhered substance on this tape was then extracted with an ion-exchange water over the course of 10 min, followed by filtrating an extraction liquid thus obtained with a 0.2 μm filter, and then quantifying, via HPLC, the amount of each of the compounds C20, C64 and C97 in each extraction liquid filtrated.

Series [9] can be described thus: Solubility of active ingredient (gallic acid) in aqueous solution of the compound. The following applies: in 1.8 g compound + 8.2 g ion-exchange water.
Where [10] appears, read: unsealed, 24 hours at 40° C. and 25% RH.

With `OCC(O)CO` [Compound A52, glycerin, reference compound], in series [1], the “α-helix secondary structure of keratin after heating” value is recorded as “maintained”. In addition, the Surface resistance value in [2] is reported as 5×10^8 Ω. Besides, the “Combing capability, cohesiveness and non-stickiness of healthy hair after conditioner” value in series [3] is reported as “slightly inferior”. Besides, the “Water evaporation inhibition rate” value in series [4] was found to be 16.2%. Moreover, the “Amount of dissolution Glutamic acid” value in series [5] is under 0.08 g. The compound further yielded a Pre-test moisture rate in series [6] (before the test (Karl Fischer)) of 20.0%. The compound further gave a Post-test moisture rate in [6] (setting [10]) of 18.0%. For the same compound, in series [6] (setting [10]), the “Rate of reduction in moisture” value was 10.0%. Besides, the “After air drying: Cohesiveness of hair” value in [7] was “Δ~X”. The “After air drying: Elasticity/Resilience” value in series [7] was “Δ~X”. Also, the “After air drying: Smoothness of hair surface” value in series [7] is recorded as “Δ~X”. Besides, the “After air drying: Suppression of hair waviness” value in series [7] is “Δ~X”. The “When washing: Finger-combing capability” value in series [7] is given as “Δ~X”. Moreover, the Compound concentration was determined as 0.030 ml/L in [8] (Tape stripping layer 1); 0.014 ml/L in [8] (Tape stripping layer 2); 0.009 ml/L in series [8] (Tape stripping layer 3); 0.009 ml/L in series [8] (Tape stripping layer 4); 0.008 ml/L in series [8] (Tape stripping layer 5); 0.006 ml/L in [8] (Tape stripping layer 6). In addition, the Compound concentration in series [8] (Tape stripping layer 7) and in series [8] (Tape stripping layer 8) was 0.006 ml/L throughout. Also, the “Amount of dissolution Gallic acid” value in series [9] is given as 0.08 g.
